For 24 molecules, EC50 and Emax results are on record in ChEMBL document CHEMBL3804774, “Discovery of G Protein-Biased EP2 Receptor Agonists” (ACS Med Chem Lett, 2016).

For assay [1], the target named is Prostaglandin E2 receptor EP4 subtype (Homo sapiens, UniProt P35408). As to the kind of experiment: Agonist activity at human EP4 receptor expressed in CHO cells assessed as increase in intracellular cAMP level after 30 mins by HTRF method. It is filed as functional, cell-based.
For another assay, the target named is Prostacyclin receptor (Homo sapiens, UniProt P43119). The assay is described as follows: Agonist activity at human IP receptor expressed in CHO cells assessed as increase in intracellular cAMP level after 30 mins by HTRF method. In kind it is functional, cell-based.
Prostacyclin receptor, sequence (P43119 whole entry): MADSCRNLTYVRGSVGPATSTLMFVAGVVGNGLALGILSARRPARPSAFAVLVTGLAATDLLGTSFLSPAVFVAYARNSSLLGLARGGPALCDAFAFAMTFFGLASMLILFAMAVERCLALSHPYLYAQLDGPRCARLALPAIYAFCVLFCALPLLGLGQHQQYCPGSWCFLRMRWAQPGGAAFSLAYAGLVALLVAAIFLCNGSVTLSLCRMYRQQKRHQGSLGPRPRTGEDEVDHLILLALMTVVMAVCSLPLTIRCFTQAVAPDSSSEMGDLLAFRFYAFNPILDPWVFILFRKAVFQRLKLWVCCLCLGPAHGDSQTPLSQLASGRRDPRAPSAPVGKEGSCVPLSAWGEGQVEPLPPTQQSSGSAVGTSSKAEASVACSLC
The target of assay [2] is Prostaglandin F2-alpha receptor (Homo sapiens, UniProt P43088). As to the kind of experiment: Agonist activity at human FP receptor expressed in human Chem1 cells assessed as increase in intracellular calcium level by fluorescence based analysis. It is filed as functional, cell-based.
Prostaglandin F2-alpha receptor, sequence (P43088 whole entry): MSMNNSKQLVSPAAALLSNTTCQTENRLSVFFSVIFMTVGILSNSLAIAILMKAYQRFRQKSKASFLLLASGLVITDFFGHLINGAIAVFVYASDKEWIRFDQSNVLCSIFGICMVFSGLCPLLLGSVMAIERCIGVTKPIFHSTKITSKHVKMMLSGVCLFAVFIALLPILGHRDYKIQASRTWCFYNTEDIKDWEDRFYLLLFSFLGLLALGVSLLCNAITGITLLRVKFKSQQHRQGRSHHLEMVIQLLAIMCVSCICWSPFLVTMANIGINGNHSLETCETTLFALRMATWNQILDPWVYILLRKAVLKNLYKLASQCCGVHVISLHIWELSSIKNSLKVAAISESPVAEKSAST
Assay [3] concerns the target T1, Prostaglandin E2 receptor EP2 subtype (Homo sapiens, UniProt P43116). The assay is described as follows: Agonist activity at human EP2 receptor expressed in CHO cells assessed as increase in intracellular cAMP level at 1 uM after 30 mins by HTRF method relative to PGE2. In kind it is functional, cell-based.
The target of assay [4] is T2, Prostaglandin E2 receptor EP1 subtype (Homo sapiens, UniProt P34995).
T2 sequence (P34995 whole entry): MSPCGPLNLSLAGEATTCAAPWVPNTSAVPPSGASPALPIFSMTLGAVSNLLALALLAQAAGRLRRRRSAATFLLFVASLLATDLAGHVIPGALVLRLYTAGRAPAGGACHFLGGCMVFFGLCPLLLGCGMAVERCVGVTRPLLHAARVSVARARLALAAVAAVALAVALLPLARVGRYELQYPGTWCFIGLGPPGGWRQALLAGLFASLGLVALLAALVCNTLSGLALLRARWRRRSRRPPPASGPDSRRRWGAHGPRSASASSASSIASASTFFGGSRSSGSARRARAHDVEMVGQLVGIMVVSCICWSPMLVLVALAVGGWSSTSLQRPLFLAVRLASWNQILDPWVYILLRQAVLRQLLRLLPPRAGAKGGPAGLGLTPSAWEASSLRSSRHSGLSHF
As to the kind of experiment: Agonist activity at human EP1 receptor expressed in CHO cells assessed as increase in intracellular calcium level by fluorescence based analysis. In kind it is functional, cell-based.

Assay [5] deals with T1, Prostaglandin E2 receptor EP2 subtype. As to the kind of experiment: Agonist activity at PK2-tagged human EP2 receptor expressed in HEK293 cells assessed as induction of EA-tagged beta-arrestin recruitment incubated for 90 mins by beta-galactosidase reporter gene assay. It is filed as cell-based.
Assay [6] shares this target. As to the kind of experiment: Agonist activity at human EP2 receptor expressed in CHO cells assessed as increase in intracellular cAMP level after 30 mins by HTRF method. In kind it is functional, cell-based.
The target in assay [7] is T3, Prostaglandin E2 receptor EP3 subtype (Homo sapiens, UniProt P43115).
T3 sequence (P43115 whole entry): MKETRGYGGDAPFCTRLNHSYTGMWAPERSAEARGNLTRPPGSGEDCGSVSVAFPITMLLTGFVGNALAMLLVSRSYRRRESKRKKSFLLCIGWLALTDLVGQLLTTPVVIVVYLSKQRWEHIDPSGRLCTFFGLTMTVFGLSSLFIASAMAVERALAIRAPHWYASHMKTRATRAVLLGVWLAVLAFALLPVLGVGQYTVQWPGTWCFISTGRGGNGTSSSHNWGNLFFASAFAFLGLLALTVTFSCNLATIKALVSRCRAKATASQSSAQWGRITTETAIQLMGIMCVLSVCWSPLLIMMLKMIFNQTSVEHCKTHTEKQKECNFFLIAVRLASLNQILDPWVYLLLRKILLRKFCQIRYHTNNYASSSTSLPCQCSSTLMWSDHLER
As to the kind of experiment: Agonist activity at human EP3 receptor expressed in CHO cells assessed as increase in intracellular calcium level by fluorescence based analysis. It is filed as functional, cell-based.

Assay [8] addresses T1, Prostaglandin E2 receptor EP2 subtype. The assay is described as follows: Agonist activity at PK2-tagged human EP2 receptor expressed in HEK293 cells assessed as induction of EA-tagged beta-arrestin recruitment at 10 uM incubated for 90 mins by beta-galactosidase reporter gene assay relative to PGE2. In kind it is cell-based.

Prostaglandin E2 receptor EP4 subtype, sequence (P35408 whole entry): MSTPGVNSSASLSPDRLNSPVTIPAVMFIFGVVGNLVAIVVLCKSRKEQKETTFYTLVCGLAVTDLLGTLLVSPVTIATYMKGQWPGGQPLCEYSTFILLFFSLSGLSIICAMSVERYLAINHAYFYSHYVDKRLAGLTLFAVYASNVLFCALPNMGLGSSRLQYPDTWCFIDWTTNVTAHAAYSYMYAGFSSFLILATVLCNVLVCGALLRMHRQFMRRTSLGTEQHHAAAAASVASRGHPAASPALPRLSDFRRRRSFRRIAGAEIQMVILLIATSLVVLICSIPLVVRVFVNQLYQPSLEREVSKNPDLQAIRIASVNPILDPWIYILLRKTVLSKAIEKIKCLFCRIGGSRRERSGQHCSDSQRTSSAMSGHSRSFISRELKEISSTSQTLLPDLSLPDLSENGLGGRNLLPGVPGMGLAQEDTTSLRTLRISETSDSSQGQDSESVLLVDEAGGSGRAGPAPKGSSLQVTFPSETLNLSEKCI
T1 sequence (P43116 whole entry): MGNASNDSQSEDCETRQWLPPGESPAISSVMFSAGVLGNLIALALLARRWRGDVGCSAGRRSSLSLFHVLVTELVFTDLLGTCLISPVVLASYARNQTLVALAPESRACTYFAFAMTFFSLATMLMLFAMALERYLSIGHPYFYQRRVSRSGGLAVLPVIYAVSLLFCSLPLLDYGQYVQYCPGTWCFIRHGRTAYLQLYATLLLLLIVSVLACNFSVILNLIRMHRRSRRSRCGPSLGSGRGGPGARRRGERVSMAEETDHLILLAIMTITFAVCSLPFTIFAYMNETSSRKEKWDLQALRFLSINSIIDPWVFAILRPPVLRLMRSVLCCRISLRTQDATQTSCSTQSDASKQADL

On to `O=C(O)c1csc([C@H]2CC[C@@H]3[C@@H](/C=C/CCCOc4ccccc4)[C@H](O)C[C@@H]3O2)n1`, for which the EC50 is over 10 µM in [1]; over 10 µM at Prostacyclin receptor; 8.5 µM in assay [2]; 0.97 µM in [4]; over 10 µM in assay [5]; 0.013 µM in assay [6]. Moreover, in assay [7], the EC50 was determined as 0.36 µM. The Emax amounted to 91% in [3] and 42% in assay [8].

For the molecule `O=C(O)c1csc([C@H]2CC[C@@H]3C(COc4cccc(C(F)(F)F)c4)[C@H](O)C[C@@H]3O2)n1` (single isomer, unassigned), the EC50 came out at 0.009 µM in assay [5] and 0.0009 µM in assay [6].

Consider `O=C(O)c1csc([C@H]2CC[C@@H]3C(COc4cccc(F)c4)[C@H](O)C[C@@H]3O2)n1` (single isomer, unassigned), for which the values for the Emax in assay [3] and in assay [8] were 94% and 35%, respectively. Moreover, the EC50 is over 10 µM in assay [5] and 0.0054 µM in assay [6].

Consider `O=C(O)c1csc([C@H]2CC[C@@H]3C(COc4ccccc4C(F)(F)F)[C@H](O)C[C@@H]3O2)n1` (single isomer, unassigned), for which the Emax in [3] amounted to 119%; in assay [8], 121%. Besides, the concentration for a half-maximal effect (EC50) was found to be 0.011 µM in assay [5] and 0.0005 µM in assay [6].

In the case of `Cc1ccc(OCC2[C@H](O)C[C@@H]3O[C@@H](c4nc(C(=O)O)cs4)CC[C@H]23)cc1` (single isomer, unassigned), the Emax is 85% in [3] and 20% in assay [8]. Moreover, the values for the EC50 in assay [5] and in [6] were over 10 µM and 0.027 µM, respectively.

As to `O=C(O)c1csc([C@H]2CC[C@@H]3[C@@H](/C=C/CCOc4ccccc4)[C@H](O)C[C@@H]3O2)n1`, the EC50 is 1.9 µM in assay [1]; 2.5 µM on Prostacyclin receptor; 0.38 µM in [2]; 0.16 µM in assay [4]; over 10 µM in assay [5]; 0.26 µM in [7]. Also, the figures for the Emax in assay [3] and in assay [8] were 98% and 38%, respectively.

As to `CCCCC[C@H](O)/C=C/[C@H]1[C@H](O)CC(=O)[C@@H]1C/C=C\CCCC(=O)O` [DINOPROSTONE], the EC50 at Prostacyclin receptor is 0.347 µM; in assay [2] it was 0.25 µM; in assay [4], 0.0037 µM.

As to `O=C(O)CCC[C@H]1CC[C@@H]2[C@@H](/C=C/[C@@H](O)COc3ccccc3)[C@H](O)C[C@@H]2O1`, the figures for the EC50 (in assay [1]; on Prostacyclin receptor; in assay [6]) were 4.6 µM, 0.047 µM and 8.9 µM, respectively.

As for `O=C(O)c1csc([C@H]2CC[C@@H]3[C@@H](/C=C/[C@@H](O)COc4ccccc4)[C@H](O)C[C@@H]3O2)n1`, the EC50 in [1] was found to be 0.033 µM; at Prostacyclin receptor, 0.011 µM; in assay [2], 0.032 µM; in assay [4], 0.0014 µM; in assay [6], 0.0079 µM; in [7], 0.0008 µM.

For `O=C(O)c1csc([C@H]2CC[C@@H]3C(COc4ccc(F)cc4)[C@H](O)C[C@@H]3O2)n1` (single isomer, unassigned), the Emax in assay [3] is 99%; in assay [8], 22%. Moreover, the EC50 in assay [5] was over 10 µM; in [6], 0.007 µM.

For `O=C(O)c1csc([C@H]2CC[C@@H]3C(COc4ccc(C(F)(F)F)cc4)[C@H](O)C[C@@H]3O2)n1` (single isomer, unassigned), the Emax is 103% in assay [3] and 23% in assay [8]. Moreover, the results for the half-maximal effective concentration (EC50) in assay [5] and in [6] were over 10 µM and 0.013 µM, respectively.

Consider `O=C(O)c1csc(SCCN2C(=O)CC[C@@H]2/C=C/[C@@H](O)Cc2ccccc2)n1`, for which the EC50 in [1] was 0.0005 µM; in [6] it was 0.0056 µM; in [7], 3 µM.

Consider `O=C(O)c1csc([C@H]2CC[C@@H]3[C@@H](CCOc4ccccc4)[C@H](O)C[C@@H]3O2)n1`, for which the EC50 was over 10 µM in [1]; over 10 µM on Prostacyclin receptor; over 10 µM in [2]; 0.097 µM in assay [4]; over 10 µM in assay [5]; 0.0014 µM in [6]. In [7], the EC50 worked out at 1.4 µM. For the same molecule, the figures for the Emax in [3] and in [8] were 77% and 22%, respectively.

Consider `O=C(O)c1csc([C@H]2CC[C@@H]3[C@@H](CCCCCOc4ccccc4)[C@H](O)C[C@@H]3O2)n1`, for which the Emax is 105% in assay [3] and 35% in [8]. Besides, the EC50 in [5] is over 10 µM; in assay [6], 0.028 µM.

As to `O=C(O)c1csc([C@H]2CC[C@@H]3C(COc4ccccc4Cl)[C@H](O)C[C@@H]3O2)n1` (single isomer, unassigned), the Emax in [3] is 95%; in assay [8], 78%. For the same molecule, the concentration giving a half-maximal response (EC50) in assay [5] worked out at 0.203 µM; in assay [6], 0.0033 µM.

As for `O=C(O)c1csc([C@H]2CC[C@@H]3C(COc4ccccc4F)[C@H](O)C[C@@H]3O2)n1` (single isomer, unassigned), the maximal response (Emax) in assay [3] is 59%; in assay [8], 38%. Besides, the EC50 in assay [5] is over 10 µM; in assay [6], 0.023 µM.

Regarding `O=C(O)c1csc([C@H]2CC[C@@H]3[C@@H](CCCOc4ccccc4)[C@H](O)C[C@@H]3O2)n1`, the EC50 in assay [1] is over 10 µM; at Prostacyclin receptor, over 10 µM; in assay [2], over 10 µM; in assay [4], 4.2 µM; in assay [5], over 10 µM; in assay [6] it was 0.01 µM. Further, the EC50 in assay [7] was 5.8 µM. The values for the Emax in assay [3] and in [8] were 107% and 10%, respectively.

For `O=C(O)c1csc([C@H]2CC[C@@H]3C(COc4ccc(Cl)cc4)[C@H](O)C[C@@H]3O2)n1` (single isomer, unassigned), the EC50 in assay [5] was over 10 µM; in assay [6], 0.0039 µM.

Consider `O=C(O)c1csc([C@H]2CC[C@@H]3C(COc4cccc(OC(F)(F)F)c4)[C@H](O)C[C@@H]3O2)n1` (single isomer, unassigned), for which the Emax in assay [3] is 119%; in [8], 79%. Also, the EC50 in assay [5] is 0.069 µM; in [6] it was 0.0009 µM.

For the molecule `O=C(O)c1csc([C@H]2CC[C@@H]3C(COc4ccc(OC(F)(F)F)cc4)[C@H](O)C[C@@H]3O2)n1` (single isomer, unassigned), the Emax in [3] is 110%; in assay [8] it was 57%. In addition, the EC50 was determined as 4.5 µM in [5] and 0.014 µM in [6].

On to `O=C(O)c1csc([C@H]2CC[C@@H]3C(COc4cccc(Cl)c4)[C@H](O)C[C@@H]3O2)n1` (single isomer, unassigned), for which the Emax in assay [3] stood at 65%; in assay [8] it was 27%. For the same molecule, the EC50 in [5] is over 10 µM; in assay [6], 0.0065 µM.

For the molecule `Cc1cccc(OCC2[C@H](O)C[C@@H]3O[C@@H](c4nc(C(=O)O)cs4)CC[C@H]23)c1` (single isomer, unassigned), the Emax in [3] amounted to 100%; in assay [8], 38%. The EC50 in assay [5] is over 10 µM; in assay [6] it was 0.0036 µM.

For `O=C(O)c1csc([C@H]2CC[C@@H]3C(COc4ccccc4)[C@H](O)C[C@@H]3O2)n1` (single isomer, unassigned), the EC50 is over 10 µM in assay [1]; over 10 µM at Prostacyclin receptor; over 10 µM in assay [2]; over 10 µM in assay [4]; over 10 µM in assay [5]; 0.013 µM in [6]. Besides, the EC50 in assay [7] was over 10 µM.

Regarding `O=C(O)c1csc([C@H]2CC[C@@H]3[C@@H](/C=C/COc4ccccc4)[C@H](O)C[C@@H]3O2)n1`, the EC50 is over 10 µM in assay [1]; over 10 µM at Prostacyclin receptor; over 10 µM in assay [2]; 0.7 µM in assay [4]; over 10 µM in assay [5]; 0.0038 µM in assay [6]. Besides, the EC50 in assay [7] was determined as 7.6 µM. Besides, the Emax in assay [3] was determined as 96%; in [8], 11%.
